These results are taken from publication PMC12298629, “New Derivatives of Caracasine Acid with Anti-Leukemic Activity and Limited Effectiveness in Spheroid Cultures” (Pharmaceuticals, 2025).

SMILES strings stand for the structures. Where only a bound is given, the exact number is not on record here.

Series [1] concerns BJ. The series can be described thus: Cytotoxic MTS assay, BJ fibroblasts. The settings on record: BJ, human fibroblasts, 72 h, median of five assays. Type of series: cell-based. The source says:
(§1) The cancer cell lines used in the cytotoxic assays were acquired from the American Tissue Culture Collection (ATCC) (Manassas, VA, USA) and maintained as described previously. The MRC-5 and BJ human fibroblasts were used as non-tumoral control cells. The (MRC-5 LD and BJ LD) are also human fibroblast cell lines resistant to doxorubicin. […] The Raji and Ramos cell lines correspond to B-cell leukemia. Other cells, such as U2OS, represent a child osteosarcoma, while HCT116 is a colorectal tumor cell line. (HCT116p53^−/−, Horizon Discovery Ltd., Cambridge, UK) is a similar cell line with its p53 gene knocked down, serving as a model of human cancer frequently associated with a poor prognosis. The cells were maintained in Nunc/corning 80 cm^2 plastic tissue culture flasks and cultured in a cell culture medium according to ATCC or Horizon recommendations (McCoy, DMEM/RPMI 1640 with 5 g/L glucose, 2 mM glutamine, 100 U/mL penicillin, […] streptomycin, 10% fetal calf serum, and NaHCO3). The compounds were freshly dissolved in DMSO. The final concentration of DMSO was 0.01% in the cell culture.
(§2) The in vitro cytotoxicity of compounds (1–7) was assessed using the standard 3-(4,5-dimethyl-thiazol-2yl)-5-(3-carboxymethoxyphenyl)-2-(sulfophenyl)-2H-tetrazolium (MTS). The assay was performed at the Institute of Molecular and Translational Medicine using a robotic platform (High-ResBiosolutions, Beverly, MA, USA). Cell suspensions were prepared and diluted according to the specific cell type and the expected target cell density (25,000–35,000 cells/mL, based on cell growth characteristics). An automatic pipettor (30 μL) was used to add cells into 384-well microtiter plates. All tested compounds were dissolved in 100% DMSO, and four-fold dilutions of the intended test concentrations were added in 0.15 μL aliquots at time zero to the microtiter plate wells by the echo acoustic non-contact liquid handler Echo550 (Labcyte, San Jose, CA, USA). The assays were accomplished in technical duplicates and at least three biological replicates. The cells were incubated with the tested compound for 72 h at 37 °C in a 5% CO2 atmosphere with 100% humidity. At the end of the incubation period, cells were assayed using the MTS test. Aliquots (5 μL) of the MTS stock solution were pipetted into each well and incubated for 1–4 h. After this incubation period, the optical density (OD) was measured at 490 nm using an Envision reader (PerkinElmer, Waltham, MA, USA). Tumor cell survival (TCS) was calculated using the following equation: TCS = (OD drug-exposed well/mean OD control wells) × 100%. The IC50 value, representing the concentration of the compound lethal to 50% of the tumor cells, was calculated from the corresponding dose-response curves using Dotmatics software (Updated version 2022, London, UK). After three days of incubation on the cancer cell lines and normal fibroblasts, the […] (IC50) were obtained. Five assays were performed for each cell line. The standard error of the assays was lower than 10%, as assessed by the triplicate assays.
Background: Formazan colour is commonly taken as a measure of viable cells.

Series [2] has as its system MRC-5 LD. The series can be described thus: Cytotoxic MTS assay, MRC-5 LD fibroblasts (doxorubicin-resistant). Type of series: cell-based. The settings on record: MRC5, doxorubicin-resistant human fibroblasts, 72 h, median of five assays.
Source text: as §1, §2

The subject of series [3] is CCRF-CEM. As to the kind of experiment: Cytotoxic MTS assay, CCRF-CEM. Type of series: cell-based. The conditions noted are these: CCRF-CEM, human leukemia cell line, 72 h, median of five assays.
Source text: as §1, §2

Series [4] has as its system K562. The series can be described thus: Cytotoxic MTS assay, K562. It counts as cell-based. The conditions noted are these: K562, human leukemia cell line, 72 h, median of five assays.
Source text: as §1, §2

In series [5] the test system is RAMOS. The series can be described thus: Cytotoxic MTS assay, Ramos. It counts as cell-based. The settings on record: Ramos, human leukemia cell line, 72 h, median of five assays.
Source text: as §1, §2

Series [6] relates to HCT116 par. As to the kind of experiment: Cytotoxic MTS assay, HCT116 parental 2D. Type of series: cell-based. The conditions noted are these: HCT-116, human tumors 2D, 72 h, median of five assays.
Source text: as §1, §2

The test system of series [7] is HCT116KO53. As to the kind of experiment: Cytotoxic MTS assay, HCT116 p53 knockout 2D. It counts as cell-based. The settings on record: HCT-116, human tumors 2D, 72 h, median of five assays.
Source text: as §1, §2

Series [8] has as its system A549. As to the kind of experiment: Cytotoxic MTS assay, A549 2D. Type of series: cell-based. The settings on record: A549, human tumors 2D, 72 h, median of five assays.
Source text: as §1, §2

The subject of series [9] is U2OS. The series can be described thus: Cytotoxic MTS assay, U2OS 2D. It counts as cell-based. The conditions noted are these: U2OS, human tumors 2D, 72 h, median of five assays.
Source text: as §1, §2

Series [10] concerns HCT116 par spheroids. The series can be described thus: Spheroid viability assay (CellTiter-Glo 3D), HCT116 parental spheroids. Type of series: cell-based. The conditions noted are these: HCT-116, human tumors spheroids, 72 h, 100 pM to 50 μM. The procedure: (§3) Spheroid culture aims to analyze the drug’s effect on complex structures resembling solid tumors. The spheroids were prepared using the specific nonadherent plates for spheroid formation (Nunc Sphera, Thermo Fisher, Waltham, MA, USA) according to the simple protocol outlined by the manufacturer. The cell lines HCT116 parental, HCT116KOTp53, A549, and U2OS were cultured at a density of 2500 cells per well using medium containing 10% fetal calf serum and antibiotics: McCoy’s 5A medium for HCT116, F-12K (Kaighn’s Modified) for A549, and Dulbecco’s Modified Eagle Medium (DMEM). The cells were grown in culture for 48 h as recommended by the manufacturer and as described by Das et al. and Muñoz-Garcia et al..
(§4) The cell viability of the treated spheroids was assessed using the kit CellTiter-Glo 3D (Promega Corporation, Madison, WI, USA). The kit is designed to measure ATP as an indicator of viability, generating a luminescent readout that is more sensitive than colorimetric or fluorescence-based methods. The spheroids were cultivated with compounds at concentrations ranging from 100 pM to 50 μM in triplicate for 72 h, and the luminescence was measured using the Enspire apparatus (PerkinElmer). A standard curve was performed for each analysis as recommended by the manufacturer.
On the technique in general: Cellular ATP, detected with luciferase, serves as a proxy for viable cell number.

Series [11] concerns U2OS spheroids. As to the kind of experiment: Spheroid viability assay (CellTiter-Glo 3D), U2OS spheroids. It counts as cell-based. The settings on record: U2OS, human tumors spheroids, 72 h, 100 pM to 50 μM. The procedure:
as §3, §4

Series [12] relates to normal human leukocytes. Further details: method as in PMID 31449809, PMID 35430982. The conditions noted are these: 0.1 nM to 50 μM in 0.01% DMSO; cited from earlier work.
Series [13] concerns leukemic cells. The series can be described thus: Effect on the cell cycle. It counts as cell-based, human. The conditions noted are these: comparable concentrations to caracasine acid.

As usually defined, the IC50 is the concentration needed to halve the response being measured.

As to `C=C1C(=O)C23CCC(C(=C)C)C(C)(CCC(=O)OC)C2CCC1C3` (centres unmarked) [Compound 2, Caracasine], the IC50 turned out to be 7.28 µM in series [1]; 6.36 µM in [2]; 0.86 µM in [3]; 3.29 µM in series [4]; 0.96 µM in [5]; 2.02 µM in [6]. Also, the IC50 in series [7] was 1.91 µM; in series [8], 8.39 µM; in [9], 3.19 µM; in [10], greater than 50 µM; in [11], greater than 50 µM. Further, the “Effect on primary leukocytes” value in series [12] is listed as “no significant effect”.

For the compound `C=C1C(=O)C23CCC(C(=C)C)C(C)(CCC(=O)OC(C)=O)C2CCC1C3` (centres unmarked) [Compound 7, Caracasine-Acetic Anhydride], the concentration for half-maximal inhibition (IC50) in series [1] amounted to 7.68 µM; in series [2], 5.53 µM; in series [3], 0.45 µM; in [4], 4.6 µM; in series [5] it was 0.96 µM; in series [6], 2.12 µM. In addition, the IC50 in series [7] is 1.91 µM; in [8] it was 3.72 µM; in series [9], 2.21 µM; in [10] it was greater than 50 µM; in [11], greater than 50 µM.

Consider `C=C(C)C1CCC23CC(CCC2C1(C)CCC(=O)OC(C)=O)C(C)C3=O` (single isomer, unassigned; ent-3) [Compound 6, Ent-3,4-Seco-15-Oxo-Kaur-4(19)-en-Acetic Anhydride], for which the IC50 in series [1], in series [2], in series [3], in series [4], in series [5] and in series [6] was greater than 50 µM each time. Besides, the half-inhibitory concentration (IC50) in [7], in series [8], in [9], in series [10] and in series [11] was greater than 50 µM in each case. Further, the “Effect on the cell cycle” value in [13] is on record as “no effect”.

On to `C=C(C)C1CCC23CC(CCC2C1(C)CCC(=O)O)C(C)C3=O` (single isomer, unassigned; ent-3) [Compound 5, Ent-3,4-Seco-15-Oxo-Kaur-4(19)-en-3-Oic Acid], for which the IC50 in [1], in series [2], in series [3], in series [4], in series [5] and in [6] was greater than 50 µM throughout. The IC50 in [7], in series [8], in series [9], in series [10] and in series [11] was greater than 50 µM throughout. The “Effect on the cell cycle” value in series [13] was “no effect”.
